Data: patent EP4578856A1, “HETEROCYCLIC COMPOUND” (Ubience Inc., priority 2022, dated 2024)

Target: ROCK2 protein (Homo sapiens, UniProt O75116)
Assay: Degradation inducing activity of ROCK2 protein in HUVEC cells, Western blotting (Simple Western JESS)
Format: cell-based
Set-up: endogenous in cells; host or cells: HUVEC (ATCC CRL-1730)
Settings: HUVEC, 24 h; for inhibition at 1 µM: degradation rate at 1 µM; for inhibition at 10 µM: degradation rate at 10 µM
Experimental: In vitro degradation inducing activity of ROCK2 protein of compounds of Examples was evaluated by Western Blotting (WB).
By a test compound, 10 mM DMSO solution was prepared, which was used as a 10 µM test compound solution. Further, the solution was diluted 10-fold with DMSO to prepare a 1 mM solution, which was used as a 1 µM test compound solution.
HUVEC cells (ATCC: CRL-1730, Lot: 70041472) were cultured in F-12K medium supplemented with 10% FBS, 0.1 mg/mL heparin, […] Endothelial Cell Growth Supplement (ECGS, Corning), and 1% Penicillin/Streptomycin. The HUVEC cells seeded in a 24 well plate at 50,000 cells/well/1 mL were cultured for 24 hours, and then 1 µL of DMSO or a test compound solution was added thereto and treatment was performed for 24 hours. Cells were harvested and lysed for 20 minutes on ice using lysis buffer (Cell Signaling Technology, Cat#9803) supplemented with protease inhibitor cocktail (Sigma, Cat#P8340; Roche, Cat#P11873580001), and phosphatase inhibitor cocktail (Sigma, Cat#P5726, P0044). The lysate was sonicated (15 seconds, amplitude 30%, 1 cycle) and then centrifuged at 12500 rpm for 15 minutes at 4°C. The protein concentration was determined by BCA assay kit (Thermo Fisher Scientific, Cat#23225).
The western blotting was performed using Simple Western JESS (protein simple). A cell lysis sample (protein amount; about 1.06 µg) was loaded on a plate of Simple Western JESS, and the expression level of ROCK2 protein was detected using a 12-230 kDa Wes Separation Module (Protein simple, Cat#SM-WO04), an Anti-Rabbit Detection Module for Wes (Protein simple, Cat#DM-001), and a Total Protein Detection Module for Wes (Protein simple, Cat#DM-TP01). As the primary antibody, a material obtained by diluting ROCK2 (D1B1) Rabbit mAb (Cell Signaling Technology, Cat#9029) at 1:10 was used, and as the secondary antibody, a material obtained by diluting HRP-labeled anti-rabbit IgG antibody (Cell Signaling Technology, Cat#7074S) at 1:100 was used. The expression level of the target protein was standardized using the total protein amount loaded as a reference. The standardized expression level data of the control (DMSO) was taken as 100%, and the degradation rate (%) was calculated from the average standardized expression level data of the test compound. All analysis steps, such as data detection and analysis, are fully automated.
With respect to the ROCK2 protein degradation rate of the test compound, the protein degradation rates (%) at the evaluation concentrations were set to A ≥ 75%, 75% > B ≥ 50%, 50% > C ≥ 25%, and D < 25%, and are shown in Table 7.

Chain of ROCK2 protein (O75116 whole entry): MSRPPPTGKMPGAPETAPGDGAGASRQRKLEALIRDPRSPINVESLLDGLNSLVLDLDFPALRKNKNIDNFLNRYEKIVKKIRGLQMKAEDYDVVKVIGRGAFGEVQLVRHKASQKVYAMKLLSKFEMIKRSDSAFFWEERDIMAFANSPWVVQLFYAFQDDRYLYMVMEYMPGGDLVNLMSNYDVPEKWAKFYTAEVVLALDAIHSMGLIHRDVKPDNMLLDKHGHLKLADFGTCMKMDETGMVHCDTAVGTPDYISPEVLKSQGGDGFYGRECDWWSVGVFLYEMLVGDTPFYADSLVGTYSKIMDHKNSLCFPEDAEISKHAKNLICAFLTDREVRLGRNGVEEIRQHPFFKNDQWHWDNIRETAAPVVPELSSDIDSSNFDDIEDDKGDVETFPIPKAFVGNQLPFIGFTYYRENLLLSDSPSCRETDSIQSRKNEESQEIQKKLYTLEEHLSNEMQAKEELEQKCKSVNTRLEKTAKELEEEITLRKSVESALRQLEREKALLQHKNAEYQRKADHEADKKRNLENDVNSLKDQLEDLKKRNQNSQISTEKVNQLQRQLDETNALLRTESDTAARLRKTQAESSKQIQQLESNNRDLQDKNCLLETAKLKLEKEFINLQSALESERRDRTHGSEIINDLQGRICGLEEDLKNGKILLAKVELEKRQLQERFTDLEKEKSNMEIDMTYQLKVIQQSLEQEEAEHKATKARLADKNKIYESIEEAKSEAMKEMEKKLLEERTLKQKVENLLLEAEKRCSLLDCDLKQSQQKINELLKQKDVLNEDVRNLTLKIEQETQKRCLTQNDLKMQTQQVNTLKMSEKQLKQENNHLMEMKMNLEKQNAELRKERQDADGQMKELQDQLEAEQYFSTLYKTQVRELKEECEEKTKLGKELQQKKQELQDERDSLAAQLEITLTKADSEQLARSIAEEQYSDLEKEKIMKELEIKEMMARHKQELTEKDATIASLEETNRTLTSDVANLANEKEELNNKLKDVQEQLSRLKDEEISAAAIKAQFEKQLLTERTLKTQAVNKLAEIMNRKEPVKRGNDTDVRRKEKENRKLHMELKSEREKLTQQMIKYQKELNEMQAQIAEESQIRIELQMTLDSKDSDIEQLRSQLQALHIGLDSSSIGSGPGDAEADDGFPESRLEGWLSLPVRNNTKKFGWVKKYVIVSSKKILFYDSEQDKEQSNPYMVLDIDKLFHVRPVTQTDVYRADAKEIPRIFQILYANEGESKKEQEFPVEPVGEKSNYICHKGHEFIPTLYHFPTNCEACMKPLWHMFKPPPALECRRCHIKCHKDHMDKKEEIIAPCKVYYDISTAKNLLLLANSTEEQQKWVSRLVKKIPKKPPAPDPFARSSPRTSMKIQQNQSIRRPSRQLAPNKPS

Row | SMILES | inhibition at 1 µM | inhibition at 10 µM
1 | C[C@@H]1CN(CC(=O)N2CC(C)(C)c3ncc(Cc4ccc(F)cc4)cc32)[C@@H](CN(C)CCOCCOCCOCCOCCOCCOCCOCCNC[C@@H](C(=O)Nc2ccc3cnccc3c2)c2ccccc2)CN1 [Example 21, (S)-1-((2R,5R)-1-(2-(6-(4-Fluorobenzyl)-3,3-dimethyl-2,3-dihydro-1H-pyrrolo[3,2-b]pyridin-1-yl)-2-oxoethyl)-5-methylpiperazin-2-yl)-N-(isoquinolin-6-yl)-2-methyl-28-phenyl-5,8,11,14,17,20,23-heptaoxa-2,26-diazanonacosan-29-amide] | 25 to 50% | 50 to 75%
2 | C[C@@H]1CN(CC(=O)N2CC(C)(C)c3ncc(Cc4ccc(F)cc4)cc32)[C@@H](CN(C)CCOCCOCCOCCNC[C@@H](C(=O)Nc2ccc3cnccc3c2)c2ccccc2)CN1 [Example 17, (S)-1-((2R,5R)-1-(2-(6-(4-Fluorobenzyl)-3,3-dimethyl-2,3-dihydro-1H-pyrrolo[3,2-b]pyridin-1-yl)-2-oxoethyl)-5-methylpiperazin-2-yl)-N-(isoquinolin-6-yl)-2-methyl-16-phenyl-5,8,11-trioxa-2,14-diazaheptadecan-17-amide] | 25 to 50% | ≥ 75%
3 | COC[C@H]1CN[C@H](C)CN1CC(=O)N1CC(C)(C)c2ncc(Cc3ccccc3OCCOCCOCCOCCOCCN[C@H](C)c3ccc(C(=O)Nc4ccncc4)cc3)cc21 [Example 67, 4-((R)-17-(2-((1-(2-((2R,5R)-2-(Methoxymethyl)-5-methylpiperazin-1-yl)acetyl)-3,3-dimethyl-2,3-dihydro-1H-pyrrolo[3,2-b]pyridin-6-yl)methyl)phenoxy)-6,9,12,15-tetraoxa-3-azaheptadecan-2-yl)-N-(pyridin-4-yl)benzamide] | < 25% | 50 to 75%
4 | COC[C@H]1CN[C@H](C)CN1CC(=O)N1CC(C)(C)c2nc(CN(C)CCOCCOCCOCCOCCN[C@H](Cc3cccc(F)c3)C(=O)Nc3ccc(-c4ccncc4)cc3)c(Cc3ccc(F)cc3)cc21 [Example 32, (R)-18-(3-Fluorobenzyl)-1-(6-(4-fluorobenzyl)-1-(2-((2R,5R)-2-(methoxymethyl)-5-methylpiperazin-1-yl)acetyl)-3,3-dimethyl-2,3-dihydro-1H-pyrrolo[3,2-b]pyridin-5-yl)-2-methyl-N-(4-(pyridin-4-yl)phenyl)-5,8,11,14-tetraoxa-2,17-diazanonadecan-19-amide] | < 25% | ≥ 75%
5 | COC[C@H]1CN[C@H](C)CN1CC(=O)N1CC(C)(C)c2ncc(Cc3cccc(OCCOCCOCCOCCOCCN[C@H](Cc4cccc(F)c4)C(=O)Nc4ccc(-c5ccncc5)cc4)c3)cc21 [Example 53, (R)-2-(3-Fluorobenzyl)-17-(3-((1-(2-((2R,5R)-2-(methoxymethyl)-5-methylpiperazin-1-yl)acetyl)-3,3-dimethyl-2,3-dihydro-1H-pyrrolo[3,2-b]pyridin-6-yl)methyl)phenoxy)-N-(4-(pyridin-4-yl)phenyl)-6,9,12,15-tetraoxa-3-azaheptadecanamide] | < 25% | 50 to 75%
6 | COC[C@H]1CN[C@H](C)CN1CC(=O)N1CC(C)(C)c2ncc(Cc3cccc(OCCOCCOCCN[C@H](C)c4ccc(C(=O)Nc5ccncc5)cc4)c3)cc21 [Example 44, 4-((R)-1-((2-(2-(2-(3-((1-(2-((2R,5R)-2-(Methoxymethyl)-5-methylpiperazin-1-yl)acetyl)-3,3-dimethyl-2,3-dihydro-1H-pyrrolo[3,2-b]pyridin-6-yl)methyl)phenoxy)ethoxy)ethoxy)ethyl)amino)ethyl)-N-(pyridin-4-yl)benzamide] | 50 to 75% | ≥ 75%
7 | COC[C@H]1CN[C@H](C)CN1CC(=O)N1CC(C)(C)c2nc(CN(C)CCOCCOCCOCCOCCOCCOCCOCCNC[C@@H](C(=O)Nc3ccc4cnccc4c3)c3ccccc3)c(Cc3ccc(F)cc3)cc21 [Example 42, (S)-1-(6-(4-Fluorobenzyl)-1-(2-((2R,5R)-2-(methoxymethyl)-5-methylpiperazin-1-yl)acetyl)-3,3-dimethyl-2,3-dihydro-1H-pyrrolo[3,2-b]pyridin-5-yl)-N-(isoquinolin-6-yl)-2-methyl-28-phenyl-5,8,11,14,17,20,23-heptaoxa-2,26-diazanonacosan-29-amide] | 50 to 75% | ≥ 75%
8 | COC[C@H]1CN[C@H](C)CN1CC(=O)N1CC(C)(C)c2ncc(Cc3cccc(OCCOCCOCCOCCOCCOCCN[C@H](Cc4cccc(F)c4)C(=O)Nc4ccc(-c5ccncc5)cc4)c3)cc21 [Example 54, (R)-2-(3-Fluorobenzyl)-20-(3-((1-(2-((2R,5R)-2-(methoxymethyl)-5-methylpiperazin-1-yl)acetyl)-3,3-dimethyl-2,3-dihydro-1H-pyrrolo[3,2-b]pyridin-6-yl)methyl)phenoxy)-N-(4-(pyridin-4-yl)phenyl)-6,9,12,15,18-pentaoxa-3-azaicosanamide] | ≥ 75% | 25 to 50%
9 | COC[C@H]1CN[C@H](C)CN1CC(=O)N1CC(C)(C)c2nc(CN(C)CCOCCOCCOCCOCCOCCOCCOCCN[C@H](Cc3cccc(F)c3)C(=O)Nc3ccc(-c4ccncc4)cc3)c(Cc3ccc(F)cc3)cc21 [Example 35, (R)-27-(3-Fluorobenzyl)-1-(6-(4-fluorobenzyl)-1-(2-((2R,5R)-2-(methoxymethyl)-5-methylpiperazin-1-yl)acetyl)-3,3-dimethyl-2,3-dihydro-1H-pyrrolo[3,2-b]pyridin-5-yl)-2-methyl-N-(4-(pyridin-4-yl)phenyl)-5,8,11,14,17,20,23-heptaoxa-2,26-diazaoctacosan-28-amide] | 50 to 75% | ≥ 75%
10 | COC[C@H]1CN[C@H](C)CN1CC(=O)N1CC(C)(C)c2ncc(Cc3ccccc3OCCOCCOCCOCCOCCOCCOCCOCCN[C@H](C)c3ccc(C(=O)Nc4ccncc4)cc3)cc21 [Example 70, 4-((R)-26-(2-((1-(2-((2R,5R)-2-(Methoxymethyl)-5-methylpiperazin-1-yl)acetyl)-3,3-dimethyl-2,3-dihydro-1H-pyrrolo[3,2-b]pyridin-6-yl)methyl)phenoxy)-6,9,12,15,18,21,24-heptaoxa-3-azahexacosan-2-yl)-N-(pyridin-4-yl)benzamide] | ≥ 75% | ≥ 75%
11 | COC[C@H]1CN[C@H](C)CN1CC(=O)N1CC(C)(C)c2ncc(Cc3cccc(OCCOCCOCCOCCOCCOCCOCCOCCN[C@H](C)c4ccc(C(=O)Nc5ccncc5)cc4)c3)cc21 [Example 49, 4-((R)-26-(3-((1-(2-((2R,5R)-2-(Methoxymethyl)-5-methylpiperazin-1-yl)acetyl)-3,3-dimethyl-2,3-dihydro-1H-pyrrolo[3,2-b]pyridin-6-yl)methyl)phenoxy)-6,9,12,15,18,21,24-heptaoxa-3-azahexacosan-2-yl)-N-(pyridin-4-yl)benzamide] | ≥ 75% | 50 to 75%
12 | COC[C@H]1CN[C@H](C)CN1CC(=O)N1CC(C)(C)c2ncc(Cc3ccccc3OCCOCCOCCOCCOCCOCCOCCN[C@H](C)c3ccc(C(=O)Nc4ccncc4)cc3)cc21 [Example 69, 4-((R)-23-(2-((1-(2-((2R,5R)-2-(Methoxymethyl)-5-methylpiperazin-1-yl)acetyl)-3,3-dimethyl-2,3-dihydro-1H-pyrrolo[3,2-b]pyridin-6-yl)methyl)phenoxy)-6,9,12,15,18,21-hexaoxa-3-azatricosan-2-yl)-N-(pyridin-4-yl)benzamide] | ≥ 75% | ≥ 75%
13 | COC[C@H]1CN[C@H](C)CN1CC(=O)N1CC(C)(C)c2ncc(Cc3cccc(OCCOCCOCCOCCNC[C@@H](C(=O)Nc4ccc5cnccc5c4)c4ccccc4)c3)cc21 [Example 59, (S)-N-(Isoquinolin-6-yl)-1-(3-((1-(2-((2R,5R)-2-(methoxymethyl)-5-methylpiperazin-1-yl)acetyl)-3,3-dimethyl-2,3-dihydro-1H-pyrrolo[3,2-b]pyridin-6-yl)methyl)phenoxy)-14-phenyl-3,6,9-trioxa-12-azapentadecan-15-amide] | ≥ 75% | ≥ 75%
